GI50 and TGI data for 13 molecules are collected here from PubChem BioAssay (NCI).

Where “and” joins values, the source holds several entries; their conditions need not be identical. Identical values can stand only once.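 Assay format: 96-well plates, 48-hour exposure. Here, GI50 denotes the concentration required for 50% inhibition of growth. The concentration for full growth arrest is given as TGI.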 Bounds are passed on as bounds.

Among the test systems are EKVX NSCLC; HCT-116 colon; MOLT-4 leukemia; OVCAR-3 ovarian; OVCAR-4 ovarian; OVCAR-8 ovarian; SK-MEL-2 melanoma; SNB-75 CNS; SW-620 colon; COLO 205 colon.
Common to all, as to assay: DTP human tumour cell line panel, 48 h

On to `CCCCCCCCCCCCCC(=O)O[C@H]1CC[C@H](NC(=O)[C@H](OC)[C@H](O)[C@@H](O)[C@H](O)/C=C/C(C)C)C(=O)N(C)C1`, for which the GI50 – broadly, the concentration at which growth is held to half of that of the control – was 1.36 µM in the test on EKVX NSCLC; 2.38 nM in the test with MOLT-4 leukemia; 13.9 nM in the test on OVCAR-3 ovarian; 3.91 nM in the test with OVCAR-4 ovarian; 0.00238 µM with OVCAR-8 ovarian; 0.0156 µM in the test with SK-MEL-2 melanoma. In addition, the results for the 50% growth inhibitory concentration (GI50) in the test on SNB-75 CNS and in the test on SW-620 colon were 21.7 nM and 2.38 nM, respectively. Further, the total growth inhibition concentration (TGI) – broadly, the concentration at which net growth stops – with EKVX NSCLC was 15 µM and > 23.8 µM; in the test on HCT-116 colon it was 15 µM and 2.46 µM; in the test on MOLT-4 leukemia, 15 µM and 5.24 µM; in the test on OVCAR-3 ovarian, 15 µM and > 23.8 µM; in the test on OVCAR-4 ovarian, 15 µM and 11.1 µM; in the test on OVCAR-8 ovarian it was 15 µM and 3.59 µM. The total growth inhibition concentration (TGI) in the test with SK-MEL-2 melanoma was 15 µM and 6.33 µM; with SNB-75 CNS, 15 µM and > 23.8 µM; in the test on SW-620 colon, 15 µM and 5.48 µM.

For the molecule `N=C(N)n1cc(/C=N/N=C(N)N)cn1`, the TGI in the test with COLO 205 colon, with EKVX NSCLC, in the test on HCT-116 colon, in the test with MOLT-4 leukemia, with OVCAR-3 ovarian and with OVCAR-4 ovarian was over 100 µM each time. The TGI with OVCAR-8 ovarian, with SNB-75 CNS and with SW-620 colon was over 100 µM each time.

`CC(=O)C1(C(=O)C(=[N+]=[N-])S(=O)(=O)c2ccccc2)CC1`: the TGI in the test on COLO 205 colon, with EKVX NSCLC, with HCT-116 colon, in the test on MOLT-4 leukemia, in the test with OVCAR-3 ovarian and with OVCAR-8 ovarian was over 100 µM in each case. Moreover, the TGI in the test with SK-MEL-2 melanoma, with SNB-75 CNS and in the test on SW-620 colon was over 100 µM in each case.

For the molecule `Cc1ccc(S(=O)(=O)Nc2ccccc2C(C)(C)C)cc1`, the total growth inhibition concentration (TGI) in the test on EKVX NSCLC was over 100 µM; in the test with HCT-116 colon, 29.1 µM; in the test on MOLT-4 leukemia, 62.8 µM; in the test on OVCAR-3 ovarian it was 40 µM; with OVCAR-4 ovarian it was over 100 µM; in the test on OVCAR-8 ovarian, over 100 µM. In addition, the total growth inhibition concentration (TGI) in the test on SK-MEL-2 melanoma was 60.2 µM; with SNB-75 CNS it was over 100 µM; in the test with SW-620 colon it was over 100 µM.

For `C=C1C(=O)O[C@@H]2C[C@@]3(C)[C@H](O)CCC(=C)[C@@H]3C[C@H]12`, the TGI in the test on COLO 205 colon is 7.09 µM; in the test with EKVX NSCLC it was 29.7 µM; in the test on HCT-116 colon, 18.5 µM; in the test on OVCAR-3 ovarian, 21.4 µM; in the test with OVCAR-4 ovarian, 26.7 µM; with OVCAR-8 ovarian, 23.3 µM. Also, the figures for the concentration for total growth inhibition (TGI) in the test on SK-MEL-2 melanoma, with SNB-75 CNS and in the test on SW-620 colon were 40 µM, 15.2 µM and 11.7 µM, respectively.

On to `O=C(Nc1nc(=S)[nH][nH]1)C(=O)C(c1cnc2ccc([N+](=O)[O-])cc2n1)[N+](=O)[O-]` (stereo not drawn), for which the total growth inhibition concentration (TGI) in the test on COLO 205 colon, in the test on EKVX NSCLC, in the test with HCT-116 colon, with MOLT-4 leukemia, in the test with OVCAR-3 ovarian and in the test on OVCAR-4 ovarian was over 100 µM throughout. Moreover, the TGI with OVCAR-8 ovarian, in the test on SNB-75 CNS and in the test on SW-620 colon was over 100 µM throughout.

`C#COc1cccc(Nc2ncnc3cc(NC(=O)[C@@H](C)Cl)ccc23)c1`: the GI50 was 5.3 µM with COLO 205 colon; 28.7 µM in the test with EKVX NSCLC; 2980 nM in the test with HCT-116 colon; 4290 nM with MOLT-4 leukemia; 2680 nM in the test on OVCAR-3 ovarian; 18.1 µM with OVCAR-8 ovarian. In addition, the GI50 in the test on SK-MEL-2 melanoma is 5.24 µM; with SNB-75 CNS, 8030 nM; in the test with SW-620 colon it was 3950 nM. Further, the concentration for total growth inhibition (TGI) in the test on COLO 205 colon, with EKVX NSCLC, in the test with HCT-116 colon, in the test with MOLT-4 leukemia, with OVCAR-3 ovarian and with OVCAR-8 ovarian was over 62.5 µM each time. The results for the TGI in the test with SK-MEL-2 melanoma, in the test with SNB-75 CNS and in the test with SW-620 colon were over 62.5 µM, 44.8 µM and over 62.5 µM, respectively.

As for `O=C(Nc1nc2ccc(S(=O)(=O)Nc3ccc(C4(C(F)(F)F)CC4)cc3)cc2[nH]1)c1cnccn1`, the GI50 is 2.84 µM in the test on COLO 205 colon; 3.04 µM in the test on EKVX NSCLC; 1660 nM in the test on HCT-116 colon; 417 nM with OVCAR-3 ovarian; 4610 nM in the test on OVCAR-4 ovarian; 5.51 µM with OVCAR-8 ovarian. Besides, the GI50 in the test with SK-MEL-2 melanoma is 3.03 µM; in the test with SNB-75 CNS it was 1530 nM; in the test with SW-620 colon, 1710 nM. The TGI with COLO 205 colon worked out at 17.5 µM; with EKVX NSCLC, 15 µM; with HCT-116 colon, 15.9 µM; in the test on OVCAR-3 ovarian it was 10.1 µM; in the test with OVCAR-4 ovarian it was 19.7 µM; in the test with OVCAR-8 ovarian, 31.8 µM. Also, the TGI in the test on SK-MEL-2 melanoma worked out at 18.5 µM; in the test on SNB-75 CNS, 6.45 µM; in the test with SW-620 colon it was 15.3 µM.

`O=C(Nc1ccccc1C(=O)NC(=O)c1ccccc1NC(=O)c1ccccc1)c1ccccc1`: the TGI with COLO 205 colon came to 2.87 µM; in the test on EKVX NSCLC it was 28.3 µM; in the test on HCT-116 colon, 13.5 µM; in the test on OVCAR-3 ovarian it was 13.4 µM; with OVCAR-4 ovarian, 18 µM; with OVCAR-8 ovarian it was 23 µM. Moreover, the total growth inhibition concentration (TGI) is 3.93 µM in the test on SK-MEL-2 melanoma, 8.87 µM in the test on SNB-75 CNS and 18.6 µM with SW-620 colon.

Consider `CCOC(=O)C1=C(C)N(NC(N)=O)C2(N)N(NC(N)=O)C(C)=C(C(=O)OCC)C12C#N` (stereo not drawn), for which the TGI in the test on EKVX NSCLC, in the test on HCT-116 colon, in the test on MOLT-4 leukemia, in the test with OVCAR-3 ovarian, in the test on OVCAR-4 ovarian and in the test on OVCAR-8 ovarian was over 100 µM in each case. The TGI with SK-MEL-2 melanoma, in the test on SNB-75 CNS and in the test with SW-620 colon was over 100 µM each time.

Take `CCCC(O)[C@@]1(CC)CC(C)C(O)(C2(C)C[C@H](C)[C@@H](C(CC)C(=O)C(C)[C@@H](O)[C@H](C)C3OC(O)(C(CC)C(=O)O)[C@@H](C)C(O)C3CC)O2)O1` (stereo partly drawn): the concentration for total growth inhibition (TGI) came to 0.83 µM with COLO 205 colon; 4.21 µM in the test with EKVX NSCLC; 1.6 µM with HCT-116 colon; 2.62 µM in the test with OVCAR-3 ovarian; 6.94 µM in the test with OVCAR-4 ovarian; 6.05 µM in the test with OVCAR-8 ovarian. In addition, the values for the total growth inhibition concentration (TGI) in the test on SK-MEL-2 melanoma, with SNB-75 CNS and in the test on SW-620 colon were 1.73 µM, 2.18 µM and 2.9 µM, respectively.

As to `CCOC(=O)C[C@@]12CCCN[C@]1(C)CCc1ccccc12`, the concentration for total growth inhibition (TGI) with EKVX NSCLC, in the test on HCT-116 colon, with MOLT-4 leukemia, with OVCAR-3 ovarian, in the test with OVCAR-4 ovarian and in the test with OVCAR-8 ovarian was over 100 µM each time. In addition, the TGI in the test with SK-MEL-2 melanoma, with SNB-75 CNS and in the test on SW-620 colon was over 100 µM in each case.

As for `[O-][n+]1c2cccc(O)c2[n+]([O-])c2cccc(O)c21`, the total growth inhibition concentration (TGI) was over 100 µM in the test on COLO 205 colon; 76.2 µM with EKVX NSCLC; over 100 µM with HCT-116 colon; over 100 µM in the test with MOLT-4 leukemia; over 100 µM in the test on OVCAR-3 ovarian; over 100 µM with OVCAR-4 ovarian. Moreover, the TGI with OVCAR-8 ovarian, with SNB-75 CNS and with SW-620 colon was over 100 µM in each case.
